Measured values as given in ChEMBL document CHEMBL3112498, “Inhibition of protein kinase C α/βII and activation of c-Jun NH2-terminal kinase mediate glycyrrhetinic acid induced apoptosis in non-small cell lung cancer NCI-H460 cells” (Bioorg Med Chem Lett, 2014).
Converted amounts (≈) assume the structure as drawn. The source made the active and inactive calls. The rule behind the calls is not given here.

Experiments:
A549 [1] = assay: Cytotoxicity against human A549 cells assessed as cell viability after 24 hrs by XTT assay; format: functional, cell-based; conditions: A549, 24 h
[2] = molecular target: T1, PKC alpha and beta-2 (Homo sapiens) (UniProt P17252+P05771); assay: Inhibition of PKC alpha/beta-2 phosphorylation in human NCI-H460 cells at 50 uM after 24 hrs by Western blot analysis in presence of PKC promoter PMA, JNK inhibitor SP600125; format: cell-based
T1 sequence (P05771 whole entry, looked up): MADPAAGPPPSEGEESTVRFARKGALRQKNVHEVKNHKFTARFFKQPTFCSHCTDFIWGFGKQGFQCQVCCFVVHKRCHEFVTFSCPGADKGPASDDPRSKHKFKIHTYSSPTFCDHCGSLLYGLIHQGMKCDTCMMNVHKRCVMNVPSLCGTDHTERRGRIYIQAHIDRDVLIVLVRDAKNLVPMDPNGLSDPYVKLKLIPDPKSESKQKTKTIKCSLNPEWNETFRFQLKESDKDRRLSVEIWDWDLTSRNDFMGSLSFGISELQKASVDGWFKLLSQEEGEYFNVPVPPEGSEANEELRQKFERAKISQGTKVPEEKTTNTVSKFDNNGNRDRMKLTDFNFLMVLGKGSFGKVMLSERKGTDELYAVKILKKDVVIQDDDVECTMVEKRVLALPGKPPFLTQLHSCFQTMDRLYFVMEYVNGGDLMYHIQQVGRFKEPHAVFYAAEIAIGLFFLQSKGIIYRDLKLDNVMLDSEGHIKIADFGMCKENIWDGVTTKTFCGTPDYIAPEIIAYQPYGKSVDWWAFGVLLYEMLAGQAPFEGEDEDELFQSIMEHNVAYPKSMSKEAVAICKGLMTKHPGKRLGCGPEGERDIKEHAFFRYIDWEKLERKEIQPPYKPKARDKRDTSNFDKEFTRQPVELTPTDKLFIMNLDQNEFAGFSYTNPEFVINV

NCI-H460 [3] = assay: Induction of apoptosis in human NCI-H460 cells assessed as caspase-3 cleavage at 50 uM after 24 hrs by Western blot analysis in presence of PKC promoter PMA, JNK inhibitor SP600125; format: functional, cell-based
NCI-H460 [4] = assay: Induction of apoptosis in human NCI-H460 cells assessed as downregulation of Bcl-xL protein expression at 12.5 to 50 uM after 24 hrs by Western blot analysis; format: functional, cell-based
NCI-H460 [5] = assay: Cell cycle arrest in human NCI-H460 cells assessed as accumulation at sub-G1 phase at 50 uM after 1 hr by propidium iodide staining-based flow cytometric analysis (reference value: 2.2%); format: functional
[6] = molecular target: T1, PKC alpha and beta-2 (Homo sapiens); assay: Inhibition of PKC alpha/beta-2 phosphorylation in human NCI-H460 cells at 12.5 to 50 uM after 24 hrs by Western blot analysis; format: cell-based
NCI-H460 [7] = assay: Cytotoxicity against human NCI-H460 cells assessed as cell viability after 24 hrs by XTT assay; format: functional, cell-based; conditions: NCI-H460, 24 h
NCI-H460 [8] = assay: Inhibition of ERK phosphorylation in human NCI-H460 cells at 12.5 to 50 uM after 24 hrs by Western blot analysis; format: cell-based
[9] = molecular target: Protein kinase C delta type (Homo sapiens) (UniProt Q05655); assay: Induction of PKC-delta phosphorylation in human NCI-H460 cells at 12.5 to 50 uM after 24 hrs by Western blot analysis; format: cell-based
Protein kinase C delta type (Homo sapiens), sequence (Q05655 whole entry, looked up): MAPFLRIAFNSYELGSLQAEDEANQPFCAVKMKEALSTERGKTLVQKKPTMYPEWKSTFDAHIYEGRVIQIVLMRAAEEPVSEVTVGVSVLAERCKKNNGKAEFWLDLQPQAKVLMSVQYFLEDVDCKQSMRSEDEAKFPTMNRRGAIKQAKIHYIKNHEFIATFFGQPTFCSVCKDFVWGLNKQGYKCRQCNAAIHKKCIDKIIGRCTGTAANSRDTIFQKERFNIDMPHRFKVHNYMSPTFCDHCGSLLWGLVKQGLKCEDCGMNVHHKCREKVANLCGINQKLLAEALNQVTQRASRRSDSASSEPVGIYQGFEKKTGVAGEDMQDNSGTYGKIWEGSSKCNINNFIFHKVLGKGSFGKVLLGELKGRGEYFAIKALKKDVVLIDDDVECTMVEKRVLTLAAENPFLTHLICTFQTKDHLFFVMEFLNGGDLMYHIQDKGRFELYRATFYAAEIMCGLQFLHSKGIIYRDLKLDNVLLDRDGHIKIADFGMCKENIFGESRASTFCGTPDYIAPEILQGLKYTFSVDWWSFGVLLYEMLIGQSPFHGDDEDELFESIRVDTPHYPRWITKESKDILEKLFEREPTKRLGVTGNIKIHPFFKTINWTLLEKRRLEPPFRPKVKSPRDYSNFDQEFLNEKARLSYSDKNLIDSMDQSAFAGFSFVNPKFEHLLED

A549 [10] = assay: Induction of apoptosis in human A549 cells assessed as PARP cleavage at 12.5 to 50 uM after 24 hrs by Western blot analysis; format: functional, cell-based
NCI-H460 [11] = assay: Cell cycle arrest in human NCI-H460 cells assessed as accumulation at sub-G1 phase after 1 hr by propidium iodide staining-based flow cytometric analysis; format: functional
NCI-H460 [12] = assay: Cell cycle arrest in human NCI-H460 cells assessed as accumulation at sub-G1 phase at 50 uM after 24 hrs by propidium iodide staining-based flow cytometric analysis in presence of PKC promoter PMA, JNK inhibitor SP600125; format: functional
NCI-H460 [13] = assay: Induction of apoptosis in human NCI-H460 cells assessed as downregulation of cyclin E protein expression at 12.5 to 50 uM after 24 hrs by Western blot analysis; format: functional, cell-based
NCI-H460 [14] = assay: Induction of apoptosis in human NCI-H460 cells assessed as downregulation of Bcl-2 protein expression at 12.5 to 50 uM after 24 hrs by Western blot analysis; format: functional, cell-based
NCI-H460 [15] = assay: Cell cycle arrest in human NCI-H460 cells assessed as accumulation at sub-G1 phase at 12.5 uM after 1 hr by propidium iodide staining-based flow cytometric analysis (reference value: 2.2%); format: functional
NCI-H460 [16] = assay: Induction of apoptosis in human NCI-H460 cells assessed as downregulation of cyclin D1 protein expression at 12.5 to 50 uM after 24 hrs by Western blot analysis; format: functional, cell-based
NCI-H460 [17] = assay: Induction of apoptosis in human NCI-H460 cells assessed as DNA fragmentation after 24 hrs by DAPI staining-based TUNEL assay; format: functional, cell-based
NCI-H460 [18] = assay: Induction of apoptosis in human NCI-H460 cells assessed as PARP cleavage at 50 uM after 24 hrs by Western blot analysis in presence of PKC promoter PMA, JNK inhibitor SP600125; format: functional, cell-based
A549 [19] = assay: Cell cycle arrest in human A549 cells assessed as accumulation at sub-G1 phase at 50 uM after 1 hr by propidium iodide staining-based flow cytometric analysis; format: functional
[20] = molecular target: c-Jun N-terminal kinase, JNK (Homo sapiens) (UniProt P45983+P53779+P45984); assay: Induction of c-Jun N-terminal kinase phosphorylation in human NCI-H460 cells at 12.5 to 50 uM after 24 hrs by Western blot analysis; format: cell-based
NCI-H460 [21] = assay: Induction of apoptosis in human NCI-H460 cells assessed as activation of caspase 9/3 at 12.5 to 50 uM after 24 hrs by Western blot analysis; format: functional, cell-based
NCI-H460 [22] = assay: Induction of apoptosis in human NCI-H460 cells assessed as PARP cleavage at 12.5 to 50 uM after 24 hrs by Western blot analysis; format: functional, cell-based

inhibition [2]: inactive
inhibition [6]: Active
Activity [9]: Active
Activity [20]: Active
SMILES: CC1(C)[C@@H](O)CC[C@]2(C)[C@H]3C(=O)C=C4[C@@H]5C[C@@](C)(C(=O)O)CC[C@]5(C)CC[C@@]4(C)[C@]3(C)CC[C@@H]12 [ENOXOLONE]
IC50 (A549 [1]): 78 µg/mL (≈ 166 µM)
Activity (NCI-H460 [3]): inactive
Activity (NCI-H460 [4]): Active
Activity (NCI-H460 [5]): 40.1%
IC50 (NCI-H460 [7]): 62 µg/mL (≈ 132 µM)
inhibition (NCI-H460 [8]): Active
Activity (A549 [10]): Active
Activity (NCI-H460 [11]): Dose-dependent effect
Activity (NCI-H460 [12]): inactive
Activity (NCI-H460 [13]): Active
Activity (NCI-H460 [14]): Active
Activity (NCI-H460 [15]): 2.8%
Activity (NCI-H460 [16]): Active
Activity (NCI-H460 [17]): Dose-dependent effect
Activity (NCI-H460 [18]): inactive
Activity (A549 [19]): Active
Activity (NCI-H460 [21]): Active
Activity (NCI-H460 [22]): Active
